PMC11590106, “Computational Model-Assisted Development of a Nonenzymatic Fluorescent Glucose-Sensing Assay” (ACS Sensors, 2024)

What was measured:
Concanavalin A (ConA) [1] = target: T1, Concanavalin A (ConA) (Canavalia ensiformis, UniProt P02866); experiment: competitive fluorescence anisotropy, displacement of Cy5.5-mannotetraose from PEG-ConA; assay type: binding; parameters: ConA Type IV (Sigma), PEGylated (5 kDa mPEG)
Concanavalin A (ConA) [2] = target: T1, Concanavalin A (ConA); experiment: fluorescence anisotropy titration (association constant Ka); assay type: binding; parameters: ConA Type IV (Sigma), PEGylated (5 kDa mPEG); tetramer treated as one protein

T1 sequence (P02866 164-281 limits assumed): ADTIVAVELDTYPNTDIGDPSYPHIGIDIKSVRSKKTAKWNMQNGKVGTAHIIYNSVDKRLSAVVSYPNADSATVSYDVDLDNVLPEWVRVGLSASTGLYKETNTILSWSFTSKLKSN
T1 sequence (P02866 30-148 limits assumed): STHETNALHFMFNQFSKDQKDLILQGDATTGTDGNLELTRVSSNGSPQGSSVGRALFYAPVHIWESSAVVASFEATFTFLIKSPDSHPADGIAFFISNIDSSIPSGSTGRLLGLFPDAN

| Compound | competitive fluorescence anisotropy, displacement of Cy5.5-mannotetraose from PE (Concanavalin A (ConA) [1]) | fluorescence anisotropy titration (association constant Ka) (Concanavalin A (ConA) [2]) |
| --- | --- | --- |
| OC[C@H]1OC(O)[C@H](O)[C@@H](O)[C@@H]1O (stereo partly drawn) [glucose] | a sensitive response of the assay was observed for various glucose concentrations within the physiological range |  |
| Cy5.5-mannobiose |  | 1.73 × 10^6 M^–1 |
| Cy5.5-mannotriose |  | 5.33 × 10^6 M^–1 |
